Assay [1] deals with Proto-oncogene tyrosine-protein kinase Src (Homo sapiens, UniProt P12931). As to the kind of experiment: Selectivity interaction (Upstate Kinase Profiler service (Millipore)) EUB0000056c SRC. The note with it: at 1 µM.
Assay [2] has as its target Vascular endothelial growth factor receptor 2 (Homo sapiens, UniProt P35968). Nature of the assay: Selectivity interaction (ProQinase) EUB0000171b KDR.
The target of assay [3] is T1, Serine/threonine-protein kinase ULK1 (Homo sapiens) (UniProt O75385).
T1 sequence (whole entry): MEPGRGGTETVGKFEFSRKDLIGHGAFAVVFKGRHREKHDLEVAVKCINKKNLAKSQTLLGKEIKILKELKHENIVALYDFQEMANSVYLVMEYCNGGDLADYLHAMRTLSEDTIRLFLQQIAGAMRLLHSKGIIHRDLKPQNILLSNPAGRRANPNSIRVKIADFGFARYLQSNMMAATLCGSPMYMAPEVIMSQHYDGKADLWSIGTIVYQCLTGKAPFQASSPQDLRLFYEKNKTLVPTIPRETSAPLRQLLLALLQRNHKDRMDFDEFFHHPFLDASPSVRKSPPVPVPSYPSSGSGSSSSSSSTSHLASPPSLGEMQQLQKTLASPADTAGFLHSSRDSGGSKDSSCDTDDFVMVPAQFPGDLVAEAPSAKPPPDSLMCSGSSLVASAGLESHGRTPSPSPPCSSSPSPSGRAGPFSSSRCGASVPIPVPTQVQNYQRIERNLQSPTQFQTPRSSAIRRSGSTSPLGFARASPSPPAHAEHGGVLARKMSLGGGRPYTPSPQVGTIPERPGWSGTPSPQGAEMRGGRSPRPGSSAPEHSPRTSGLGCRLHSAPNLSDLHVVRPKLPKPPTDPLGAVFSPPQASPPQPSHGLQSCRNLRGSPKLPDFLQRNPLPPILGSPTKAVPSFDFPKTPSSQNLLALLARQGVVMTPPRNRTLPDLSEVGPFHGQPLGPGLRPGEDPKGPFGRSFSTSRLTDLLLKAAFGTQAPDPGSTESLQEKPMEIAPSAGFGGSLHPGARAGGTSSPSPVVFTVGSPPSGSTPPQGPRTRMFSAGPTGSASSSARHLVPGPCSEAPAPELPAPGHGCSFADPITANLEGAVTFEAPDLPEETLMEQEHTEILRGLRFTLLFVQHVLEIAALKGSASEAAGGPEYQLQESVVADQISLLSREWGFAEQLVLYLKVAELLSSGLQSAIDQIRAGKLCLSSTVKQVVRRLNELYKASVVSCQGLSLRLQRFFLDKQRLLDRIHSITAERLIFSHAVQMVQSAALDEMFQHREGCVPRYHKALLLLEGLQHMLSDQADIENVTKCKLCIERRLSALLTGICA
The note with it: at 10 µM.

For assay [4], the target named is Serine/threonine-protein kinase SIK2 (Homo sapiens) (UniProt Q9H0K1). The conditions noted are these: at 10 µM.
The target of assay [5] is Phosphatidylinositol 4,5-bisphosphate 3-kinase catalytic subunit gamma isoform (Homo sapiens) (UniProt P48736). As to the kind of experiment: Selectivity interaction (KinomeScan (DiscoverX)) EUB0001079a PIK3CG. The note with it: at 1 µM.
For assay [6], the target named is T2, Phosphatidylinositol 5-phosphate 4-kinase type-2 gamma (Homo sapiens) (UniProt Q8TBX8).
T2 sequence (whole entry): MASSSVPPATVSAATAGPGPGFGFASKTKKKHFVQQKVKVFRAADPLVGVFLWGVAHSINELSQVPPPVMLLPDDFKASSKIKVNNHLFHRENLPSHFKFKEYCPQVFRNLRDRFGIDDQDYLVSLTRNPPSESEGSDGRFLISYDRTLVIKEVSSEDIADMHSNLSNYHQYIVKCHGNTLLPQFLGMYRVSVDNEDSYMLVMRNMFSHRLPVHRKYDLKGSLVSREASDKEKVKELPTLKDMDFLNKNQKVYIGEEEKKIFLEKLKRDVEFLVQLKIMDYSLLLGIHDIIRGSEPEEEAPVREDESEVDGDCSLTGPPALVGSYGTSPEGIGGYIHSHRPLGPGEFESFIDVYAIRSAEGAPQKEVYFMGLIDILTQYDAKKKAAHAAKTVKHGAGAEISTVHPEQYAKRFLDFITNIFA
Nature of the assay: Selectivity interaction (KinomeScan (DiscoverX)) EUB0000092b PIP4K2C. The note with it: at 10 µM.

In assay [7] the target is Serine/threonine-protein kinase 26 (Homo sapiens, UniProt Q9P289). As to the kind of experiment: Selectivity interaction (KinomeScan (DiscoverX)) EUB0001868a STK26. The note with it: at 1 µM.
Assay [8] concerns the target Phosphatidylinositol 4-phosphate 5-kinase type-1 gamma (Homo sapiens) (UniProt O60331). As to the kind of experiment: Selectivity interaction (KinomeScan (DiscoverX)) EUB0000607a PIP5K1C. The conditions noted are these: at 10 µM.
Assay [9] has as its target Protein-tyrosine kinase 2-beta (Homo sapiens) (UniProt Q14289). Nature of the assay: Selectivity interaction (ActivX KiNativ screen (kinase selectivity in THP-1 cell lysates)) EUB0000639a PTK2B. Type of assay: subcellular. The note with it: lysate, at 0.2 µM.
The target in assay [10] is T3, Serine/threonine-protein kinase Nek5 (Homo sapiens) (UniProt Q6P3R8).
T3 sequence (whole entry): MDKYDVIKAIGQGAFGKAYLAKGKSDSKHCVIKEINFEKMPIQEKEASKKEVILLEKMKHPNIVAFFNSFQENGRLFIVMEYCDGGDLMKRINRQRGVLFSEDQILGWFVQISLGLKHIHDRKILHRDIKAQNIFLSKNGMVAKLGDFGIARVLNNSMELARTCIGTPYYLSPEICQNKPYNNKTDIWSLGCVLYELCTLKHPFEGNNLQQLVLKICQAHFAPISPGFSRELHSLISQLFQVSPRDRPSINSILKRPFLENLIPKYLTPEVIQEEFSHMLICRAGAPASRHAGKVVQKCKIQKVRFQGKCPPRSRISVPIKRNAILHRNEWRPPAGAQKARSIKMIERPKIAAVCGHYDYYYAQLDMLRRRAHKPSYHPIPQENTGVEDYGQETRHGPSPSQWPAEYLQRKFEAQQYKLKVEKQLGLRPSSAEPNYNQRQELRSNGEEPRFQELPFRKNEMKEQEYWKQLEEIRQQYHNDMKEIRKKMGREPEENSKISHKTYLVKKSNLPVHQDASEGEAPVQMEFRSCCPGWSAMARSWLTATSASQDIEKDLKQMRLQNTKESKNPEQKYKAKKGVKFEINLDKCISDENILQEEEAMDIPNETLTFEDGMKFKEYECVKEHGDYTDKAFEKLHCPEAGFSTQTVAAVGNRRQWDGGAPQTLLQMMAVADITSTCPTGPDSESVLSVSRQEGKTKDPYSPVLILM
Nature of the assay: Selectivity interaction (KinomeScan (DiscoverX)) EUB0001619a NEK5. The conditions noted are these: at 1 µM.

Assay [11] addresses 5'-AMP-activated protein kinase catalytic subunit alpha-1 (Homo sapiens, UniProt Q13131). As to the kind of experiment: Selectivity interaction (Kinase panel (literature)) EUB0001199aCl PRKAA1. The note with it: at 1 µM.

Chain of Vascular endothelial growth factor receptor 2 (P35968 whole entry): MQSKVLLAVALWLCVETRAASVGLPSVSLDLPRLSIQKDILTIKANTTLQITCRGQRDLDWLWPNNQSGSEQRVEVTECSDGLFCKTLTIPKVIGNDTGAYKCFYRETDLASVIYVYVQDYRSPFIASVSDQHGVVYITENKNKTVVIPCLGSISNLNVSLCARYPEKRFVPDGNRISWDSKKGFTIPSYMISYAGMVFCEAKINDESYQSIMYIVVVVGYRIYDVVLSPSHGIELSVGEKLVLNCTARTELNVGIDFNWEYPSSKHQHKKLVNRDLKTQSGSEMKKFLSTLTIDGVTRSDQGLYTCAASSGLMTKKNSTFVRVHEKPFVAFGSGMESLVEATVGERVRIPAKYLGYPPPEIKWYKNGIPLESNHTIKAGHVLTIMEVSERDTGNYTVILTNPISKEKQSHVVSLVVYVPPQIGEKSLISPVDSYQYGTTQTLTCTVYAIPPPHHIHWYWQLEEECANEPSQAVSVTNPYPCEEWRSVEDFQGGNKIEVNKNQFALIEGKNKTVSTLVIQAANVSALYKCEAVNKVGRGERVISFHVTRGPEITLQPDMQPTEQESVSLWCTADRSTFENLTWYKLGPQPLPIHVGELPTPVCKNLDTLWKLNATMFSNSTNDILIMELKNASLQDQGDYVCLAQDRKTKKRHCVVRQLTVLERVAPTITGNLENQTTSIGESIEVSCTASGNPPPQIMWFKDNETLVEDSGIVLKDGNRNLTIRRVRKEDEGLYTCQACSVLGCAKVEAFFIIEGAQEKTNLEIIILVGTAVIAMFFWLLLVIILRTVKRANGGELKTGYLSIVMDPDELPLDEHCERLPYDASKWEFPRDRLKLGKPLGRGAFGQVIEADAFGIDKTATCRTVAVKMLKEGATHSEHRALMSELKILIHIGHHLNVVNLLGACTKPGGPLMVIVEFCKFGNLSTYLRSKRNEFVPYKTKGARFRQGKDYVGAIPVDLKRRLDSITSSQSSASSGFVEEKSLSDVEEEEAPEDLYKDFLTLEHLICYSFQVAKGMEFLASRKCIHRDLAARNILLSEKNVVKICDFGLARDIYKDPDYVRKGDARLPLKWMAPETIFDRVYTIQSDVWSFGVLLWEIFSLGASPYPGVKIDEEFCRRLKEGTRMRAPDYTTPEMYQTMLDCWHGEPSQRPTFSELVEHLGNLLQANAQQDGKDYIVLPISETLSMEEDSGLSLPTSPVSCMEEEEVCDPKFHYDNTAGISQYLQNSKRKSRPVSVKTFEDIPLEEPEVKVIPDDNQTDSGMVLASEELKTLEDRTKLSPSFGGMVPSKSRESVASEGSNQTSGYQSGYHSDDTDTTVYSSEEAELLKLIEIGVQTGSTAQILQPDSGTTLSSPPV
Chain of Phosphatidylinositol 4-phosphate 5-kinase type-1 gamma (Homo sapiens) (O60331 whole entry): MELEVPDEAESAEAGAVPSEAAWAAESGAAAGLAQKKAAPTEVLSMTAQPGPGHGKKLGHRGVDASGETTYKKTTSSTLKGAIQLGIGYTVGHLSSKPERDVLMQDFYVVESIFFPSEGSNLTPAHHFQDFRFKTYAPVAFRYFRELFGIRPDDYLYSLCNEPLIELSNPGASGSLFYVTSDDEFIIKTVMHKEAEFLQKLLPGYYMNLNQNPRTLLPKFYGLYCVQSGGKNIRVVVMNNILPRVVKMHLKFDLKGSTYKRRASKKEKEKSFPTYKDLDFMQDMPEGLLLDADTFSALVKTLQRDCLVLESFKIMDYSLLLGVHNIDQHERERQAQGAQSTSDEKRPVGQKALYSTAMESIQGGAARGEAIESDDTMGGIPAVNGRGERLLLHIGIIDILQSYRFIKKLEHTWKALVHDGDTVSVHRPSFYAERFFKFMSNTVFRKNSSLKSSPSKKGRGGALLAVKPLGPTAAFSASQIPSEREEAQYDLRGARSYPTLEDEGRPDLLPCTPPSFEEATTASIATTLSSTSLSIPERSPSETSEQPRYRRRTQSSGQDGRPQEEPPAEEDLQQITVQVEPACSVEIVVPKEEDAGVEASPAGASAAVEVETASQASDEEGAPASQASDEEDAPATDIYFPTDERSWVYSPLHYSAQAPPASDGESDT
Chain of Proto-oncogene tyrosine-protein kinase Src (P12931 2-536 limits assumed): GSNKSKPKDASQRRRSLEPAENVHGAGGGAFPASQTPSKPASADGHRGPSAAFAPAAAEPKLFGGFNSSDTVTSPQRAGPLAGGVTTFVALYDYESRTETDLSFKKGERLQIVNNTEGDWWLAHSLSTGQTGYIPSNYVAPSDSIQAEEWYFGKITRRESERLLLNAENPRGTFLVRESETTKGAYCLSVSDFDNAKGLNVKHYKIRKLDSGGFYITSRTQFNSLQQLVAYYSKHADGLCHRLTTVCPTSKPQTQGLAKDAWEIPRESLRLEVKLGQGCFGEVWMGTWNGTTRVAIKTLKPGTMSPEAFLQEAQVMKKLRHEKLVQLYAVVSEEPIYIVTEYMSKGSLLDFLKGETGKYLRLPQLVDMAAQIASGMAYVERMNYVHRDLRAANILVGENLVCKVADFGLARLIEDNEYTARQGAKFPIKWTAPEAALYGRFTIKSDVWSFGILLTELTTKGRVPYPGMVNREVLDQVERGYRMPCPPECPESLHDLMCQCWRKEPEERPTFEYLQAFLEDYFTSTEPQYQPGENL
Chain of 5'-AMP-activated protein kinase catalytic subunit alpha-1 (Q13131 whole entry, looked up): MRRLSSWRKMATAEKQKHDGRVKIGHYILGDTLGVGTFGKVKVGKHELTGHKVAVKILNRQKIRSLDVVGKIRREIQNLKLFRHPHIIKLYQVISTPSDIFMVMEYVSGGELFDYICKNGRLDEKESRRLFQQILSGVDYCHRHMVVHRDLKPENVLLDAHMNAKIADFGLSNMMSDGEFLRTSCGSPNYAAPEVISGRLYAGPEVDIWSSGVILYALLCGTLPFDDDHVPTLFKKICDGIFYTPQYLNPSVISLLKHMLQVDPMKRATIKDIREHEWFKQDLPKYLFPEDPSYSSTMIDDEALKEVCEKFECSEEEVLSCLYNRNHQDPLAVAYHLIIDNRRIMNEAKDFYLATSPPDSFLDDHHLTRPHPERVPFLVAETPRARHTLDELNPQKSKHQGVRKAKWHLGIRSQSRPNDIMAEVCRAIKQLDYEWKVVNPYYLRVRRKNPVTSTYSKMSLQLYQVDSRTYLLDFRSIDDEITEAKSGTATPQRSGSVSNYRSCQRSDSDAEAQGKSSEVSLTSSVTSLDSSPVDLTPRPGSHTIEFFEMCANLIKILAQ
Chain of Serine/threonine-protein kinase SIK2 (Homo sapiens) (Q9H0K1 whole entry, looked up, canonical isoform): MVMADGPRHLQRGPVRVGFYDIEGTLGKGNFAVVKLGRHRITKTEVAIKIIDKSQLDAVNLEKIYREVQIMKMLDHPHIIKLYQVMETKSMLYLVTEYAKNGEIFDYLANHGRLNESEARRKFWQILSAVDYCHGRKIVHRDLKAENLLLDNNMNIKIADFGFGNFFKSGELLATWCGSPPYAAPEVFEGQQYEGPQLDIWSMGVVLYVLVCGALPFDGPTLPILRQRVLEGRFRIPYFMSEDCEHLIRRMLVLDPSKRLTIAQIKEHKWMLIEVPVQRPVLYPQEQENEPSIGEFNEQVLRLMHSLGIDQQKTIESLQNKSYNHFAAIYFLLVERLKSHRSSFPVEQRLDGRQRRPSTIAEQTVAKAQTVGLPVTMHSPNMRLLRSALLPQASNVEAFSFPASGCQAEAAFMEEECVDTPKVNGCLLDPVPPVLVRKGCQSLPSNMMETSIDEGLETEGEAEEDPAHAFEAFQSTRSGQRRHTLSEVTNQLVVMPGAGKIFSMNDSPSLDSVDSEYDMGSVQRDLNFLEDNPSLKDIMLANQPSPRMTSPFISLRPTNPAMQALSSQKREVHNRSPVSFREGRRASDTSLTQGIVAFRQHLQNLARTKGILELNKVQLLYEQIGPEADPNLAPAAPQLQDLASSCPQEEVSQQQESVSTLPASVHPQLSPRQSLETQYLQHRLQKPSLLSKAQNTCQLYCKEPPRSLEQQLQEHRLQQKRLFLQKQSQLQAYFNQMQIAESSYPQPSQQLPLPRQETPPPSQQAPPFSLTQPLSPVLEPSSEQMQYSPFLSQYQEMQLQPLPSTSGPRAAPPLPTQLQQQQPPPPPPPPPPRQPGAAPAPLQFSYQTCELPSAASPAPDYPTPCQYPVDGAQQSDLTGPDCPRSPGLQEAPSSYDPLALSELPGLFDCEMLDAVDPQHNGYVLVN
Chain of Protein-tyrosine kinase 2-beta (Homo sapiens) (Q14289 whole entry, looked up): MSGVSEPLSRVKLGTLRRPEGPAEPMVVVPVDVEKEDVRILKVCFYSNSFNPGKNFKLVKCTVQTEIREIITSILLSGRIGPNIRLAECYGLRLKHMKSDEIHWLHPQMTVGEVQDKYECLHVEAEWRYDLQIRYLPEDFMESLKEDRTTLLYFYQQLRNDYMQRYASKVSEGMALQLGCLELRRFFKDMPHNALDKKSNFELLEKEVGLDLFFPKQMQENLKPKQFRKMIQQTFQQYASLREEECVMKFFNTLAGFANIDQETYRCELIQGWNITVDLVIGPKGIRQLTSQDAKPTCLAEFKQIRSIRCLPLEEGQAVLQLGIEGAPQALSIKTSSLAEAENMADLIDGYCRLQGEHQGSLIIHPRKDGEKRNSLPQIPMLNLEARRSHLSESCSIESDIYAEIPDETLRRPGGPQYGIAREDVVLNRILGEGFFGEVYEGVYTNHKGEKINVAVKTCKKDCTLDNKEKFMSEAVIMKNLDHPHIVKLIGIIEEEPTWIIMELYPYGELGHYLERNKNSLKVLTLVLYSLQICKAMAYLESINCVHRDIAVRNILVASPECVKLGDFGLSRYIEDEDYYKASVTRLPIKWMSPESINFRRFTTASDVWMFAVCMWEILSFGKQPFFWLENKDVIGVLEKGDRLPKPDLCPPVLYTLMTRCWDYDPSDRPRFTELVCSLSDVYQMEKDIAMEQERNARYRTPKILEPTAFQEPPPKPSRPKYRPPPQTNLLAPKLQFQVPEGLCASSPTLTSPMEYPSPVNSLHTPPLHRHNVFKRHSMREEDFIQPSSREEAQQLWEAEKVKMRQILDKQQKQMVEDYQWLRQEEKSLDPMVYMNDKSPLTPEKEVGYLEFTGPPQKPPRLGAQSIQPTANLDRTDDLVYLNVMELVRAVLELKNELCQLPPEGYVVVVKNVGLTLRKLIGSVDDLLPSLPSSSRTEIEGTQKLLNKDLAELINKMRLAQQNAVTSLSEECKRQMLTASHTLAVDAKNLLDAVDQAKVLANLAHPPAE

In the case of `Cc1ccc(-c2ccc3c(ccc4sc5c(c43)NC[C@@H](C)NC5=O)n2)cn1`, in assay [1], the % of inhibition amounted to 12%.
As to `C=CC(=O)Nc1cccc(C(=O)Nc2ccc(Nc3cc(-c4[nH]c(SC)nc4C)ccn3)cc2)c1`, the values for the % of control in assay [2] (at 1 µM) and in assay [2] (at 5 µM) were 78% and 50%, respectively.
`Cc1cc([C@@H](C)Nc2ccccc2C(=O)O)c2nc(N3CCOCC3)cc(=O)n2c1` [AZD-6482]: the % of control is 91% in [3] and 100% in assay [4].
In assay [5], `Nc1cnc(N2CCc3cc(S(=O)(=O)Nc4c(F)cc(Cl)cc4F)cc(N4CCCC4=O)c32)nc1` [TP-020n] yielded a % of control of 81%.
On to `CCC(=O)N1CCN(c2ccc(-n3c(=O)ccc4cnc5ccc(-c6cnc7ccccc7c6)cc5c43)cc2C(F)(F)F)CC1`, for which, in assay [6], the % of control amounted to 58%.
In [7], `Cc1cc(-c2ccnc(Nc3cnn(C)c3)n2)ccc1CNC(=O)N1CC(OC(C)C)C1` returned a % of control of 42%.
For `CNC(=O)Nc1ccc(-c2nc(N3CC4CCC(C3)O4)c3cnn(C4CCC5(CC4)OCCO5)c3n2)cc1`, the % of control in [8] was found to be 100%.
`CC[C@@H]1[C@H](F)C(=O)N[C@@H]1COc1nccc2cc(C(N)=O)c(OC)cc12` [ZIMLOVISERTIB]: in assay [9], the % of inhibition is -18.6%.
Take `N#Cc1cccc(-c2c[nH]c3ncnc(N4CCOCC4)c23)c1`: the % of control in [10] amounted to 100%.
Consider `CN1Cc2nccc(-c3cn(C)nc3-c3ccc(F)cc3)c2C1=O`, for which the % of inhibition in assay [11] is 3%.

The values are drawn from ChEMBL document CHEMBL5465560, “Selectivity Literature for EUbOPEN Chemogenomic Library” (2024).
